What was measured:
Type in all cases: physicochemical
[1] = Product solution of CD-3 free base sodium salt after solvent exchange, observed at ambient temperature; conditions: Example 53, nominally 23% in water after distilling 2-propanol, contains DEHA
Procedure: A 425 gram autoclave solution containing 23.2% CD-3 free base, 2.5% DEHA in 268 g of 2-propanol, and 47 g of water was added to a two-liter flask equipped with an overhead agitator, temperature probe, addition funnel, condenser with take-off provision, and nitrogen blanketing. Water (275 g) and 30 g of 50% aqueous sodium hydroxide were added to the flask. The mixture was distilled at a vapor temperature of approximately 85° C.

[2] = Saturation solubility of CD-3 free base in solvents and solvent/water mixtures; conditions: 3% DEHA, ambient temperature
Procedure: The solubility of the free base form of color developers CD-3 in a number of potential solvents was determined. Representative solvents were selected from each of the different classes of solvents: alcohols, glycols and glycol ethers. A small quantity of a representative preservative, 3% of N,N-diethylhydroxylamine (DEHA), was added. Excess dry color developer free base (CD-3) was added to each solvent and saturation was achieved by mixing for several hours at room temperature. […] In Table I, Solvent:Water refers to the weight:weight, solvent:water ratio when water was included, CD Free Base Concentration refers to the weight percent saturation concentration of CD-3, and PEG 200 and PEG 300 refers to poly(ethylene glycol) having an average molecular weight of 200 or 300.

[3] = Saturation solubility of CD-3 free base in solvent/water/sodium hydroxide systems; conditions: 3 weight percent DEHA, ambient temperature, HPLC
Procedure: Because CD-3 free base can be converted to its metal salt by treatment with a sufficiently strong base such as an alkali metal or alkaline earth metal hydroxide, carbonate, alkoxide or hydride, the solubility of CD-3 free base in solvent systems in combination with water and base was measured to determine if enhanced solubility could be obtained. The saturation concentration in weight percent again was determined by the techniques of both HPLC and NMR. Selected solvents were combined with water and an alkali metal hydroxide (sodium hydroxide), with each sample containing a small quantity (3 weight percent) of a representative preservative (DEHA). Excess, dry CD-3 free base was added to each combination solvent system and saturation was achieved by mixing for several hours at ambient temperature.

## CCN(CC[N-]S(C)(=O)=O)c1ccc(N)c(C)c1.[Na+] [CD-3 free base sodium salt]
[1]
  Solution behaviour of final product solution: remained in solution

## CCN(CCNS(C)(=O)=O)c1ccc(N)c(C)c1 [CD-3 free base, 4-amino-3-methyl-N-ethyl-N-(2-methanesulfonamidoethyl)aniline]
[2]; Example 1, 2-Isopropoxyethanol
  CD Free Base Conc. (saturation concentration): 8.6 weight percent
[2]; Example 2, 2-Methyl-1,3-Propanediol
  CD Free Base Conc. (saturation concentration): 3.3 weight percent
[2]; Example 3, 3-Methoxy-1-Butanol
  CD Free Base Conc. (saturation concentration): 9.3 weight percent
[2]; Example 4, PEG-200
  CD Free Base Conc. (saturation concentration): 16.9 weight percent
[2]; Example 5, PEG-300
  CD Free Base Conc. (saturation concentration): 16.7 weight percent
[2]; Example 6, Diethylene Glycol
  CD Free Base Conc. (saturation concentration): 15.2 weight percent
[2]; Example 7, Methanol
  CD Free Base Conc. (saturation concentration): 23.6 weight percent
[2]; Example 8, Methanol/Water 90:10 w:w
  CD Free Base Conc. (saturation concentration): 18.9 weight percent
[2]; Example 9, Methanol/Water 50:50 w:w
  CD Free Base Conc. (saturation concentration): 6.8 weight percent
[2]; Example 10, Methanol/Water 10:90 w:w
  CD Free Base Conc. (saturation concentration): 0.7 weight percent
[2]; Example 11, Ethanol
  CD Free Base Conc. (saturation concentration): 5.4 weight percent
[2]; Example 12, Ethanol/Water 90:10 w:w
  CD Free Base Conc. (saturation concentration): 9.7 weight percent
[2]; Example 13, Ethanol/Water 50:50 w:w
  CD Free Base Conc. (saturation concentration): 9.0 weight percent
[2]; Example 14, Ethanol/Water 10:90 w:w
  CD Free Base Conc. (saturation concentration): 0.6 weight percent
[2]; Example 15, 2-Propanol
  CD Free Base Conc. (saturation concentration): 1.8 weight percent
[2]; Example 16, 2-Propanol/Water 90:10 w:w
  CD Free Base Conc. (saturation concentration): 7.8 weight percent
[2]; Example 17, 2-Propanol/Water 50:50 w:w
  CD Free Base Conc. (saturation concentration): 9.2 weight percent
[2]; Example 18, 2-Propanol/Water 10:90 w:w
  CD Free Base Conc. (saturation concentration): 0.8 weight percent
[3]; Example 19, 2-Isopropoxyethanol/Water/NaOH 63:34:3 w
  CD Free Base Conc. (saturation concentration): 22.9 weight percent
[3]; Example 20, 2-Methyl-1,3-Propanediol/Water/NaOH 63:34:3 w
  CD Free Base Conc. (saturation concentration): 19.0 weight percent
[3]; Example 21, 3-Methoxy-1-Butanol/Water/NaOH 63:34:3 w
  CD Free Base Conc. (saturation concentration): 21.3 weight percent
[3]; Example 22, PEG-200/Water/NaOH 63:34:3 w
  CD Free Base Conc. (saturation concentration): 19.5 weight percent
[3]; Example 23, PEG-300/Water/NaOH 63:34:3 w
  CD Free Base Conc. (saturation concentration): 19.2 weight percent
[3]; Example 24, Diethylene Glycol/Water/NaOH 63:34:3 w
  CD Free Base Conc. (saturation concentration): 15.1 weight percent
[3]; Example 26, 2-Methyl-1,3-Propanediol/Water/NaOH 61:33:6 w
  CD Free Base Conc. (saturation concentration): 23.2 weight percent
[3]; Example 27, 3-Methoxy-1-Butanol/Water/NaOH 61:33:6 w
  CD Free Base Conc. (saturation concentration): 26.4 weight percent
[3]; Example 28, PEG-200/Water/NaOH 61:33:6 w
  CD Free Base Conc. (saturation concentration): 23.5 weight percent
[3]; Example 29, PEG-300/Water/NaOH 61:33:6 w
  CD Free Base Conc. (saturation concentration): 20.8 weight percent
[3]; Example 30, Diethylene Glycol/Water/NaOH 61:33:6 w
  CD Free Base Conc. (saturation concentration): 21.9 weight percent
[3]; Example 31, Water/NaOH 93.5:6.5 w
  CD Free Base Conc. (saturation concentration): 25.1 weight percent
[3]; Example printed 24 (second), 2-Isopropoxyethanol/Water/NaOH 61:33:6 w
  CD Free Base Conc. (saturation concentration): 21.9 weight percent
